Experiment: Water Miscibility Test
Type: physicochemical
Details: 0.5 g ionic liquid and 4.5 g de-ionized water, sonicated 1.5 hours; miscible if homogenous transparent system within 15 minutes of standing
Procedure: “Hydrophilic ionic compound” or “water miscible ionic compound” as used herein refers to ionic compound that is partially or wholly miscible with water, i.e. it is capable of forming a visually homogenous or transparent mixture with water according to the Water Miscibility Test described herein. The water miscibility of an ionic liquid is measured by the following water miscibility test. A mixture of 0.5 g ionic liquid and 4.5 g de-ionized water are sonicated in a Bransonic Ultrasonic Bath (model # 1210R-MTH, 50/60 Hz, 117 volts, 1.3 AMPS) according to manufacture's specifications for 1.5 hours. Thereafter, if a homogenous transparent system results within 15 minutes of standing without agitation, then the ionic liquid is water miscible.

Row | Water Miscible? | Substance
1 | No | Tetraoctyl Ammonium Dodecylbenzenesulfonate [Example 3]
2 | No | Triisooctylmethyl Ammonium Mid-Chain Branched Dodecylsulfate [Example 2]

Row | Substance | Water Miscible?
3 | Tetraoctyl Ammonium Mid-Chain Branched Dodecylsulfate [Example 1] | No
